Experimental data published in patent US12319655B2, “RAF kinase inhibitors and methods of use thereof” (Deciphera Pharmaceuticals, LLC, priority 2021, dated 2025).

Columns and labels:
Type in all cases: cell-based
WM3629 cells = experiment: WM3629 Cell Proliferation Assay (2)
Protocol: WM3629 Cell Proliferation Assay (2)
WM3629 cells (#WM3629-01-0001) are obtained from Rockland Immunochemicals Inc (Gilbertsville, PA). Briefly, cells were grown in MCDB 153 medium (Sigma, #M7403, St. Louis, MO) supplemented with 20% Leibovitz's L-15 (ThermoFisher #11415-064, Waltham, MA), 2% heat inactivated fetal bovine serum (ThermoFisher, #A3840001, Waltham, MA), 5 μg/mL Insulin (Bovine Pancreas) (Sigma, #I0516, St. Louis, MO), 1.68 mM Calcium Chloride (Sigma, #C-34006, St. Louis, MO) and 1% Penicillin/Streptomycin/L-Glutamine (ThermoFisher #10378016, Waltham, MA) at 37° C., 5% CO2, and 95% humidity. Cells are expanded until reaching 70-95% confluency at which point they are sub-cultured or harvested for assay use. Using the Beckman Coulter Echo 650, a serial dilution of test compound is dispensed into a 384-well black clear bottom plate in triplicate. One thousand one hundred twenty-five cells are added per well in 50 μL complete growth medium in the 384-well plate. Plates are incubated for 67-72 hours at 37° C., 5% CO2, and 95% humidity. At the end of the incubation, 10 μL of a 440 μM solution of resazurin (Sigma, #199303, St. Louis, MO) in PBS is added to each well of the plate and plates are incubated for an additional 3-6 hours at 37° C., 5% CO2, and 95% humidity. Plates are read on a Synergy2 or equivalent reader (Biotek, Winooski VT) using an excitation of 540 nm and an emission of 600 nm. Data is analyzed using Prism software (GraphPad, San Diego, CA) to calculate IC50 values.

Miapaca-2 cells [1] = experiment: MiaPaca-2 Combination Cell Proliferation Assay (2) with cobimetinib; conditions: MiaPaca-2 cell proliferation, read-out: MiaPaca-2 Combo (2) IC50
Protocol: MiaPaca-2 Combination Cell Proliferation Assay (2)
Miapaca-2 cells (catalog #CRL-1420) are obtained from the American Type Culture Collect (ATCC, Manassas, VA). Briefly, cells were grown in DMEM supplemented with 10% characterized fetal bovine serum (Invitrogen, Carlsbad, CA), 2.5% New Zealand sourced horse serum and 1% Penicillin/Streptomycin/L-Glutamine at 37° C., 5% CO2, and 95% humidity. Cells are expanded until reaching 70-95% confluency at which point they are subcultured or harvested for assay use. Using the Beckman Coulter Echo 650, a threefold, 8-point serial dilution of compound was spotted column wise into a 384 well black, clear bottom, tissue culture treated plate. Likewise, a threefold, 8-point serial dilution of cobimetinib was spotted row wise into the 384 well black, clear bottom plate containing compound. DMSO concentration was constant across all wells at 0.4%. Seven hundred fifty cells are added per well in 50 μL complete growth medium in each 384-well plate. Plates are incubated for 67-72 hours at 37° C., 5% CO2, and 95% humidity. At the end of the incubation, 10 μL of a 440 μM solution of resazurin (Sigma, St. Louis, MO) in PBS is added to each well of the plate and plates are incubated for an additional 4-6 hours at 37° C., 5% CO2, and 95% humidity. Plates are read on a Synergy2 or equivalent reader (Biotek, Winooski VT) using an excitation of 540 nm and an emission of 600 nm. Drug synergy was assessed via BLISS analysis in the Combenefit software (Cancer Research UK Cambridge Institute, Cambridge, UK). Data is analyzed using Prism software (Graphpad, San Diego, CA) to calculate IC50 values. Shifts in test compound IC50 values are reported from top-constrained combination therapy curves.

Miapaca-2 cells [2] = experiment: MiaPaca-2 Combination Cell proliferation Assay (1) with cobimetinib; conditions: MiaPaca-2 cell proliferation, read-out: MiaPaca-2 Combo (1) IC50

| IC50 (Miapaca-2 cells [1]) [nM] | IC50 (Miapaca-2 cells [2]) [nM] | Structure (SMILES) | IC50 (WM3629 cells) [nM] |
| --- | --- | --- | --- |
| – | – | CNC(=O)c1cc(-c2cc(-c3cc(NC(=O)c4ccnc(C(C)(C)F)c4)ccc3C)cnn2)ccn1 [Example 473] | ≤ 100 |
| 1000 to 10000 | – | CNC(=O)c1cc(-c2cc(-c3cc(NC(=O)c4ccnc(C(C)(C)F)c4)ccc3F)ccn2)ccn1 [Example 479] | ≤ 100 |
| – | – | Cc1ncc(NC(=O)c2ccnc(C(C)(F)F)c2)cc1-c1ccnc(-c2ccnc(NC(=O)C3CC3)c2)c1 [Example 466] | ≤ 100 |
| – | – | CNC(=O)c1cc(-c2cncc(-c3cc(NC(=O)c4ccnc(C(C)C)c4)ccc3C)c2)ncn1 [Example 446] | ≤ 100 |
| – | – | CNC(=O)c1cc(-c2cc(-c3cc(NC(=O)c4ccnc(C(C)(C)F)c4)cc(F)c3C)ccn2)ccn1 [Example 480] | ≤ 100 |
| – | – | CNC(=O)c1cc(-c2cc(-c3cc(NC(=O)c4ccnc(C(C)(C)F)c4)ccc3C)ncn2)ccn1 [Example 474] | ≤ 100 |
| – | – | CNC(=O)c1cc(-c2cc(-c3cc(NC(=O)c4ccnc(C(C)(C)F)c4)ccc3C)cc(C)n2)ccn1 [Example 470] | ≤ 100 |
| – | 100 to 500 | COc1ccc(NC(=O)c2ccnc(C(C)(C)C#N)c2)cc1-c1cccc(-c2cc(NC(=O)C3CC3)ncn2)c1 [Example 438] | – |
| – | – | CNC(=O)c1cc(-c2cc(-c3cc(NC(=O)c4ccnc(C(C)(C)F)c4)ccc3C)c(F)cn2)ccn1 [Example 469] | ≤ 100 |
| 100 to 500 | – | CNC(=O)c1cc(-c2cncc(-c3cc(NC(=O)c4ccnc(C(C)C)c4)ccc3C)c2)ccn1 [Example 445] | ≤ 100 |
| 100 to 500 | – | CNC(=O)c1cc(-c2cc(-c3cc(NC(=O)c4ccnc(C(C)(F)F)c4)ccc3C)ccn2)ccn1 [Example 441] | – |
| 1000 to 10000 | – | CNC(=O)c1cc(-c2cc(-c3cc(NC(=O)c4ccnc(C(C)(C)F)c4)c(F)cc3F)ccn2)ccn1 [Example 482] | ≤ 100 |
| 100 to 500 | – | Cc1ccc(NC(=O)c2ccnc(C(C)(C)F)c2)cc1-c1ccnc(-c2ccnc(C(N)=O)c2)c1 [Example 476] | ≤ 100 |
| – | – | CNC(=O)c1cc(-c2cc(-c3cc(NC(=O)c4ccnc(C(C)(C)F)c4)ccn3)ccn2)ccn1 [Example 481] | 1000 to 10000 |
| – | – | CNC(=O)c1cc(-c2cc(-c3cc(NC(=O)c4cnnc(C(F)(F)F)c4)ccc3C)ccn2)ccn1 [Example 477] | ≤ 100 |
| 500 to 1000 | – | Cc1cc(-c2cc(NC(=O)c3ccnc(C(C)(C)F)c3)ccc2C)cc(-c2ccnc(C(N)=O)c2)n1 [Example 484] | ≤ 100 |
| – | 100 to 500 | CNC(=O)c1cc(-c2cncc(-c3cc(NC(=O)c4ccnc(C(C)(C)F)c4)ccc3C)c2)ccn1 [Example 413] | – |
| 500 to 1000 | – | CNC(=O)c1cc(-c2cncc(-c3cc(NC(=O)c4ccnc(C(C)(F)F)c4)ccc3C)c2)ccn1 [Example 440] | – |
| – | – | Cc1cc(-c2cc(NC(=O)c3ccnc(C(C)(C)F)c3)ccc2C)cc(-c2ccnc(C#N)c2)n1 [Example 483] | ≤ 100 |
| 100 to 500 | – | CNC(=O)c1cc(-c2cc(-c3cc(NC(=O)c4ccnc(C(C)C)c4)ccc3C)ccn2)ccn1 [Example 443] | ≤ 100 |
